Experiments:
PQS [1] = experiment: PQS Inhibition Assay (24 Hour Incubation); format: cell-based, P. aeruginosa PA14 wild-type strain; conditions: Pseudomonas aeruginosa, PA14, 24 h, read-out: PQS (24 hr) IC50 (μM)
Method: Test compounds are dissolved in DMSO at 10 mM and stored at −20° C. until needed. Seven test concentrations from 0.0032 micromolar to 31.6 micromolar are used for each compound. P. aeruginosa PA14 wild-type strain is inoculated into 5 mL LB broth in a 15-mL sterile glass culture tube and incubated overnight at 37° C. under shaking (˜240 rpm). The overnight culture is then diluted in LB Broth to give an OD600=0.04 (T0 culture). Colony Forming Units (CFU)/mL of the overnight culture and T0 culture are determined by a series of 1:10 serial dilutions in sterile saline. 4×20 μL of each dilution is seeded on LB agar plates and incubated at 35±2° C. for 20 hours. CFU/mL is determined from the dilution that gives 2 to 50 colonies/20 μL.
For concentration response curve (CRC) experiments, internal standard (2-((5-nitro-1H-indol-2-yl)thio)-N-(4-phenoxyphenyl)acetamide)) and test compounds are serially diluted in DMSO to give 200 times of each final concentration (0.5% DMSO final), and 1 μL/well is dispensed in duplicate into 2-mL wells of a 96 well deep well plate. 200 μL/well of T0 culture is added to each internal standard/test compound well used to determine PQS control level. Wells containing only LB broth (blank wells) are also included in the plate.
The plate is sealed and incubated at 37° C. for 24 hours under shaking (˜700 rpm) using a microtiter shaker. At the end of the incubation period, 150 μL/well of the deep well plate culture are transferred in a new non-sterile plate, and 150 μL/well of methanol containing tetra-deuterated PQS (D4-PQS) and 2% acetic acid are added to each well. The plate is sealed, shaken at high speed for 5 minutes and centrifuged at 4,000 g for 40 minutes at room temperature. 100 μL/well of the supernatant is then transferred to glass vials (vials crimp 0.2 mL) and kept at 4° C. until LC-MS/MS analysis.
PQSs quantification is carried out by analyzing samples in discrete batches together with spiked standards and blank samples.
Calibration curves are constructed from PQS standards, and respective deuterated PQS is used as an Internal Standards (IS) to calculate the concentration of analytes in the sample and improve the precision of the assay. The back-calculated concentrations of the calibration standards from the calibration curve shall be within ±20% of the nominal values, the range of the analytical method is determined, and the lower and upper limit of quantification specified.
(§1) Liquid chromatography separations are performed using an Agilent HP1100 system (Agilent Technologies) coupled with a CTC PAL Autosampler (CTC Analytics AG). Chromatographic retention is obtained using a monolithic column (Chromolith® RP-18, 50×4.6 mm). The solvent system consists of water containing 0.1% (v/v) formic acid (A) and acetonitrile containing 0.1% (v/v) formic acid (B). The gradient elution profile is chosen as follows: 0 min: 70% A (1500 μL/min), 0.3 min: 70% A (1500 μL/min), 1.3 min: 5% A (2500 μL/min), 1.6 min: 5% A (2500 μL/min).
The MS/MS analysis is performed with an API4000 series mass spectrometer (AB Sciex™) operating in Multiple Reaction Monitoring (MRM) mode and equipped with a TIS ion source. The specific ions monitored are PQS (m/z 260→m/z 175) and D4-PQS (m/z 264→m/z 179). The computer systems used in this study to acquire and quantify data may be an Analyst™ v1.5.
PQS in the presence of different concentrations of test compound are expressed as percentage of inhibition of the basal level in control samples. Curve fitting and IC50 estimations are carried out using a four parameter logistic model using GraphPad Prism v.5 program.

Pyocyanin = Pyocyanin Inhibition Assay; format: cell-based, P. aeruginosa, strain PA14; conditions: Pseudomonas aeruginosa, PA14, 24 h, read-out: Pyocyanin Inhibition No. IC50 (μM)
Method: Test compounds are dissolved in DMSO at 10 mM and stored at −20° C. until needed. Seven test concentrations from 0.0032 micromolar to 31.6 micromolar are used for each compound.
P. aeruginosa, strain PA14, is inoculated into 5 mL of LB broth in a 15-mL sterile glass culture tube and incubated overnight at 37° C. under shaking (˜240 rpm). The overnight culture is then diluted in LB Broth to give an OD600=0.04 (T0 culture). Colony Forming Units (CFU)/mL of the overnight culture and T0 culture are determined by a series of 1:10 serial dilutions in sterile saline. 4×20 μL of each dilution is seeded on LB agar plates and incubated at 35±2° C. for 20 hours. CFU/mL is determined from the dilution that gives 2 to 50 colonies/20 μL.
For concentration response curve (CRC) experiments, internal standard, 2-((5-nitro-1H-indol-2-yl)thio)-N-(4-phenoxyphenyl)acetamide, a compound previously identified as an MvfR inhibitor (see Example 1 of US 2014-0066454 (WO 2012/116010)), and test compounds are serially diluted in DMSO to 200 times each final concentration (0.5% DMSO fmal), and 1 μL/well is dispensed in duplicate into 2 mL wells of a 96-well deep well plate. 200 μL/well of T0 culture are added to each internal standard/test compound well. Wells containing only T0 culture (200 200 μL/well) are used to determine pyocyanin control level and wells containing only LB broth (blank wells) are also included in the plate.
The plate is sealed and incubated at 37° C. under shaking (˜700 rpm) using a microtiter shaker for 24 hours. At the end of the incubation period, the plate is centrifuged at 4,000 g for 40 minutes at room temperature, 100 μL/well of the supernatant is transferred to a 96-microtiter PS flat-bottom plate, and absorbance at 690 nm is determined using SPECTROstar® Nano microplate reader. Pyocyanin concentration (M) is determined using the equation C=A690/(ε×d), where ε is the Pyocyanin extinction coefficient, at A690 nm ε is 4,310 M^−1 cm^−1 and d is the experimentally derived pathlength. The level of pyocyanin in the presence of test compound is expressed as percentage of inhibition with respect to the control. Curve fitting and IC50 determination were carried out using a four-parameter logistic model using GraphPad Prism v.5.

HHQ = experiment: Assay for HHQ Inhibition (6 Hour Incubation); format: cell-based, P. aeruginosa PA14 wild-type strain; conditions: Pseudomonas aeruginosa, PA14, 6 h, read-out: HHQ (6 hr) IC50 (μM)
Method: (§2) A concentration range with 7 test concentrations is chosen for each test compound. Typically concentration ranges for the PQS and HHQ assays are from 0.03 to 31.6 μM. Compounds are prepared in solvent, usually DMSO, at either 200 or 500 times the final test concentration.
(§3) P. aeruginosa PA14 wild-type strain is inoculated into 5 ml LB broth in a 15 ml sterile glass culture tube and incubated overnight at 37° C. under shaking (˜240 rpm). After overnight incubation, the bacterial culture is diluted in fresh LB broth to an OD600 nm=0.04, and 5 mL aliquots of the diluted bacterial culture are distributed into 15-mL glass tubes. 10 μL of test compound at 500 times the final test concentration or 25 μL of test compound at 200 times the final test concentration or solvent alone is added to each of the bacterial suspension tubes, and the tubes are incubated at 37° C. under shaking (300 rpm) for 6 hours. At the end of the incubation period, a 0.5 mL aliquot of bacterial suspension is transferred from each 15 mL glass tube, after shaking, to a 2 mL polypropylene vial. 0.5 mL of methanol-containing D4-PQS (deuterated-PQS), D4-HHQ (deuterated-HHQ) and 2% acetic acid are added to each 2 mL vial and each vial is vigorously shaken. The vials are then centrifuged for 5 minutes at 12,000 g, and 200 μL of supernatant from each vial is transferred to a glass vial (vials crimp 0.2 mL), and the sealed vials are kept at 4° C. until LC-MS/MS analysis is performed. HAQs quantification is carried out analyzing samples in discrete batches together with spiked standards and blank samples. Calibration curves are constructed from HAQs standards, and respective deuterated forms are used as Internal Standards (IS), to calculate the concentration of analytes in the sample and improve the precision of the assay. The back-calculated concentrations of the calibration standards from the calibration curve shall be within ±20% of the nominal values, the range of the analytical method is determined, and the lower and upper limit of quantification specified.
as §1, with “using” for “using an”
(§4) The MS/MS analysis is performed with a API4000 series mass spectrometer (AB Sciex™) operating in Multiple Reaction Monitoring (MRM) mode and equipped with a TIS ion source. The specific ions monitored are PQS (m/z 260→m/z 175), D4-PQS (m/z 264→m/z 179), HHQ (m/z 244→m/z 159) and D4-HHQ (m/z 248→m/z 163). PQS and HHQ in presence of different test compound concentrations are expressed as percentage of inhibition of the basal level in control samples.

PQS [2] = experiment: Assay for PQS Inhibition (6 Hour Incubation); format: cell-based, P. aeruginosa PA14 wild-type strain; conditions: Pseudomonas aeruginosa, PA14, 6 h, read-out: PQS (6 hr) IC50 (μM)
Method: as §2, §3
as §1, with “using” for “using an”
as §4

Row | Compound | IC50 (PQS [1]) | IC50 (Pyocyanin) | IC50 (HHQ) | IC50 (PQS [2])
1 | Cc1cc(NCC(=O)Nc2ccc(C#N)c(Cl)c2)ccc1Br [Compound 153] | > 10 µM | > 10 µM |  | 
2 | Cc1cc(F)ccc1NC(=O)CNc1ccc(C#N)cc1 [Compound 154] | > 10 µM | > 10 µM |  | 
3 | N#Cc1ccc(NC(=O)CNc2ccc(F)cc2)cc1 [Compound 155] | > 10 µM | > 10 µM |  | 
4 | N#Cc1ccc(NC(=O)CNc2ccc(Cl)cc2)cc1 [Compound 156] | > 10 µM | > 10 µM |  | 
5 | N#Cc1ccc(NCC(=O)Nc2ccc(F)c(F)c2)nc1 [Compound 157] | > 10 µM | > 10 µM |  | 
6 | O=C(CNc1cccc(F)c1)Nc1cccc(Oc2ccccc2)c1 [Compound 158] | > 10 µM | > 10 µM |  | 
7 | O=C(CNc1nc2ccc(Cl)cc2[nH]1)Nc1ccc(Oc2cccnc2)cc1 [Compound 159, 2-((5-chloro-1H-benzo[d]imidazol-2-yl)amino)-N-(4-(pyridin-3-yloxy)phenyl)acetamide] |  | 0.1 to 1 µM | < 1 µM | < 1 µM
